Data as given in article PMC11714206, “Massively Parallel Screening of Toll/Interleukin‐1 Receptor (TIR)‐Derived Peptides Reveals Multiple Toll‐Like Receptors (TLRs)‐Targeting Immunomodulatory Peptides” (Advanced Science, 2024).
Values joined by “and” are separate entries in the source; they are usually repeats but may differ in a detail not shown here. Equal entries are not always repeated. Values belong to the sequence of their own block, whether it stands above or below them.

Key:
[1] = biological target: T1, MyD88^TIR (Homo sapiens, UniProt Q99836); assay: T‐Surf phage library (P8 and P3) selection against MyD88^TIR, four rounds, NGS read counts; assay type: binding; settings: for P3_MyD88 Rank (after) / P3_MyD88 Rank (before): P3 library; for Population: 4th round of selection against MyD88 TIR, share of NGS reads; for P8_MyD88 Rank (after) / P8_MyD88 Rank (before): P8 library
T1 construct: MyD88 (residues 148–296); 6xHis; made in house; host or cells: E. coli BL21 (DE3)
How it was run: (§1)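 Library of 190 946 TIR‐derived peptides on P8 or P3 was panned on immobilized TIR domain coated at 5 µg mL^−1, BSA‐blocked, 1 h binding at RT, PBS/0.5% Tween‐20 washes, HCl elution, TG1 amplification. Fourth‐round pools were PCR‐barcoded, sequenced (100 bp paired‐end, Phred ≥30), and peptides ranked by read counts.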

[2] = biological target: T2, MAL^TIR (Homo sapiens, UniProt P58753); assay: T‐Surf phage library (P8 and P3) selection against MAL^TIR, four rounds, NGS read counts; assay type: binding; settings: for Population: 4th round of selection against MAL TIR, share of NGS reads; for P3_MAL Rank (after) / P3_MAL Rank (before): P3 library; for P8_MAL Rank (after) / P8_MAL Rank (before): P8 library
T2 construct: MAL (residues 79–221); 6xHis; made in house; host or cells: E. coli BL21 (DE3)
How it was run: as §1

[3] = selection against MyD88 TIR, rank by count after grouping
[4] = selection against MyD88 TIR, rank by count before grouping
[5] = P3_MAL: rank by count after grouping
[6] = P3_MAL: rank by count before grouping
[7] = P3_MyD88 pool: P3 T-Surf phage library
[8] = P3_MAL pool: P3 T-Surf phage library
[9] = 4R selection against MyD88, rank after grouping
[10] = 4R selection against MyD88, rank before grouping
[11] = 4R selection against MAL, rank after grouping
[12] = 4R selection against MAL, rank before grouping
[13] = P3_MyD88: rank by count after grouping
[14] = P3_MyD88: rank by count before grouping
[15] = P8_MyD88 pool: P8 T-Surf phage library
[16] = selection against MAL TIR, rank by count after grouping
[17] = selection against MAL TIR, rank by count before grouping
[18] = selection against MyD88, rank after grouping
[19] = selection against MyD88, rank before grouping
[20] = selection against MAL, rank after grouping
[21] = selection against MAL, rank before grouping
[22] = P8_MAL pool: P8 T-Surf phage library

T1 sequence (Q99836 148-296): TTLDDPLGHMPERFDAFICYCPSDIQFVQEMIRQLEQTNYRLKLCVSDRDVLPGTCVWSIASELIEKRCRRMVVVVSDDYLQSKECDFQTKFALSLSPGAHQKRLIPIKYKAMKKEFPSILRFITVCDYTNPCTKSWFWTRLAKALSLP
T2 sequence (P58753 79-221): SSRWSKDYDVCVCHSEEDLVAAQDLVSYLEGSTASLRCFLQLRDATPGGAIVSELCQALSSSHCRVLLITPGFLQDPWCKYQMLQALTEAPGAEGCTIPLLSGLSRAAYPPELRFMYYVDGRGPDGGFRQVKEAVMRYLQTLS

Sequence: YLKWGDPYFWSKLRYAM
Population [1, 7]: 0.00466%
Rank (after) [2, 5]: 159
Rank (before) [2, 6]: 519

Sequence: YLKWKEALHQFHSWV
P3_MyD88 Rank (after) [1, 9]: 601
P3_MyD88 Rank (before) [1, 10]: 1609
P3_MAL Rank (after) [2, 11]: 662
P3_MAL Rank (before) [2, 12]: 1520

Sequence: SSFREGPWRLLELSKK
Population [1, 7]: 0.00466%
Population [2, 8]: 0.00338%

Sequence: LKVESWRQALEKRAN
Rank (after) [1, 13]: 99
Rank (before) [1, 14]: 383
Rank (after) [2, 5]: 122
Rank (before) [2, 6]: 331

Sequence: SIFREGLWRLLELSKK
Population [1, 7]: 0.00291%
Population [2, 8]: 0.0259%

Sequence: RGFLSHLRHHLQAKDH
Rank (after) ([1]; P8_MyD88: rank by NGS read count after grouping): 907
Rank (before) ([1]; P8_MyD88: rank by NGS read count before grouping): 3395
Rank (after) ([2]; P8_MAL: rank by count after grouping): 107
Rank (before) ([2]; P8_MAL: rank by count before grouping): 654

Sequence: SFFGINCVIICQRRS
P3_MyD88 Rank (after) [1, 18]: 545
P3_MyD88 Rank (before) [1, 19]: 2934
Rank (after) [2, 5]: 126
Rank (before) [2, 6]: 360

Sequence: LKWGDPYFGANCVMR
P3_MyD88 Rank (after) [1, 3]: 269
P3_MyD88 Rank (before) [1, 4]: 1069
Rank (after) [2, 5]: 143
Rank (before) [2, 6]: 415

Sequence: KEVEGWRDALTKVANLSGW
P3_MyD88 Rank (after) [1, 18]: 522
P3_MyD88 Rank (before) [1, 19]: 3634
P3_MAL Rank (after) [2, 20]: 565
P3_MAL Rank (before) [2, 21]: 3573

Sequence: AFLYTFLINLTHPTNF
P3_MyD88 Rank (after) [1, 18]: 537
P3_MyD88 Rank (before) [1, 19]: 1881
P3_MAL Rank (after) [2, 11]: 588
P3_MAL Rank (before) [2, 12]: 1798
Population [2, 22]: 0.00463% and 0.00432% and 0.00402% and 0.00371% and 0.0034% and 0.00309% and 0.00278%

Sequence: SSFREGLWRLLELSKLRYAM
P3_MyD88 Rank (after) [1, 18]: 517
P3_MyD88 Rank (before) [1, 19]: 3173
P3_MAL Rank (after) [2, 20]: 558
P3_MAL Rank (before) [2, 21]: 3151

Sequence: YAFTGHLHRYLVQHCE
Rank (after) [1, 13]: 169
Rank (before) [1, 14]: 841
Rank (after) [2, 5]: 115
Rank (before) [2, 6]: 207

Second part, led by results:

P3_MyD88 Rank (after) [1, 3]: 196
P3_MyD88 Rank (before) [1, 4]: 1511
Rank (after) [2, 5]: 413
Rank (before) [2, 6]: 1402
Sequence: YAFTGHLHRYLVQREPAGN

Population [1, 7]: 0.00408%
Population [2, 8]: 0.00564%
Sequence: NQWRNALTAAANLNGW

Rank (after) ([1]; P8_MyD88: rank by count after grouping): 162
Rank (before) ([1]; P8_MyD88: rank by count before grouping): 180
Population [1, 15]: 0.00732%
P8_MAL Rank (after) [2, 16]: 287
P8_MAL Rank (before) [2, 17]: 1431
Sequence: WKNALANIAEILGFEL

Rank (after) [1, 13]: 120
Rank (before) [1, 14]: 1532
P3_MAL Rank (after) [2, 16]: 251
P3_MAL Rank (before) [2, 17]: 1443
Sequence: YAFTGHLQRYLVHRGV

P3_MyD88 Rank (after) [1, 18]: 512
P3_MyD88 Rank (before) [1, 19]: 2480
P3_MAL Rank (after) [2, 20]: 557
P3_MAL Rank (before) [2, 21]: 2266
Sequence: LKVESWRQSREKAGKL

Population [1, 15]: 0.00771%
P8_MAL Rank (after) [2, 16]: 200
P8_MAL Rank (before) [2, 17]: 2049
Sequence: ELDFSHFWLFDGQAGGEA

P3_MyD88 Rank (after) [1, 9]: 592
P3_MyD88 Rank (before) [1, 10]: 2519
P3_MAL Rank (after) [2, 16]: 213
P3_MAL Rank (before) [2, 17]: 2293
Sequence: LKVESCVRRWKKRAN

Population [1, 7]: 0.00437%
Population [2, 8]: 0.0124%
Rank (after) [2, 5]: 105
Rank (before) [2, 6]: 109
Sequence: KMQKWKDALYEAANLSGW

P8_MyD88 Rank (after) [1, 9]: 615
P8_MyD88 Rank (before) [1, 10]: 1356
Sequence: WFYERLVSLILRDTKV
Population [2, 22]: 0.00432% and 0.00402% and 0.00371% and 0.0034% and 0.00309% and 0.00278%

Population [1, 7]: 0.00349%
Rank (after) [2, 5]: 134
Rank (before) [2, 6]: 489
Sequence: KEVEGWRDALTKVANLV

P3_MyD88 Rank (after) ([1]; selection against MyD88, rank by count after grouping): 682
P3_MyD88 Rank (before) ([1]; selection against MyD88, rank by count before grouping): 1622
P3_MAL Rank (after) ([2]; selection against MAL, rank by count after grouping): 751
P3_MAL Rank (before) ([2]; selection against MAL, rank by count before grouping): 1535
Sequence: YTLLAICMMRCIVIV

Population [1, 7]: 0.00466%
Population [2, 8]: 0.00413%
Sequence: SSFHEGLWRLLELSKK

P8_MyD88 Rank (after) [1, 18]: 483
P8_MyD88 Rank (before) [1, 19]: 3397
Population [2, 22]: 0.0034%
Sequence: RNFVAYLFQALANKGI
